Several values for one entry are separate records, joined by “and”; a condition that tells them apart may be missing. Identical values can stand only once. Entries after “also recorded” stand apart in the source; their conditions may differ.

The results in this text go back to US20260294906A1, “TREATING PSORIASIS USING A SMALL MOLECULE INHIBITOR OF TUMOR NECROSIS FACTOR ALPHA” (SANOFI, priority 2023, published 2026).

Series [1] concerns patients with mild to moderate psoriasis. As to the kind of experiment: Clinical response by Target Lesion Severity (TLS) score, phase 1 placebo-controlled study. It counts as in vivo, human. Conditions: for Mean (±SEM) % improvement from baseline in TLS score / ΔLSm (±SE) (Compound 1 minus placebo) in % improvement from baseline in TLS score: 200 mg BID; for LSm (±SE) % improvement from baseline in TLS score: 200 mg BID oral, fed, average of 2 lesions; for LSm (±SE) % improvement from baseline in TLS score / ΔLSm (±SE) (Compound 1 minus placebo) in % improvement from baseline in TLS score: MMRM. As for the experimental part: A double-blind, randomized, placebo-controlled phase 1 study was carried out in participants with mild to moderate psoriasis. Study participants were randomized to 200 mg twice a day (BID) of Compound 1 or placebo in 2:1 ratio (approximately 24 in the treatment group and 12 in the placebo group). The study comprised an up to 4-week screening period, and a 4-week treatment period with Compound 1 or placebo. An end-of-study visit was carried out 10±3 days after the last investigational medicinal product (IMP) administration.
The primary objective of the study was to assess the safety, tolerability, and clinical efficacy of Compound 1 at 200 mg BID via oral administration. Also evaluated was the clinical effect of Compound 1 as compared to placebo on the percent change in PASI and TLS scores from baseline to week 2 and week 4. The percent change in PASI score from baseline to week 4 was determined. TLS score was also assessed over the same time period. Also assessed was the effect of Compound 1 on biomarkers of psoriasis. Blood samples collected at predetermined time points were processed to quantify serum levels of biomarkers, including interleukin (IL)-17A, IL-17F, and IL-22 by high sensitivity methods. IL-17A, IL-17F and IL-22 are the main cytokines released by Th17 cells. Plasma levels of Compound 1 were measured to assess pharmacokinetics in the study population.
(§1) Two study interventions were used, Compound 1 and placebo. The Compound 1 intervention comprised 4× tablets of Compound 1 50 mg twice daily, i.e. 200 mg BID, for 4 weeks. The placebo intervention was 4× tablets of placebo twice daily for 4 weeks. Tablets were administered orally.
The interventions were used in two arms of the study. Arm 1 was the experimental arm and it involved participants receiving 200 mg of Compound BID for 4 weeks under fed conditions. Arm 2 was the placebo arm and it involved participants receiving the matching placebo tablets for 4 weeks under fed conditions.
TLS score, which is a validated tool for psoriasis severity assessment, was used to evaluate severity and to assess clinical efficacy. It consists of a sum score of 3 clinical severity parameters (scaling, erythema, plaque elevation/induration; each graded on a 5-point severity scale; 0=clear, 1=slight, 2=mild, 3=moderate, and 4=severe) with a sum score ranging between 0 and 12 points (see, e.g., Czamowicki et al., J Am Acad Dermatol. (2014) 71(5):954-959.e1). The following assessment was used, in which TLS score was calculated as the sum of A+B+C (adapted from Fredriksson et al., Dermatologica (1978) 157(4):238-244):
The TLS score was assessed at baseline, 2 weeks and 4 weeks. Table 2 below presents the Least Square means (LSm)±Standard Error (SE) for each treatment and the Least Squares means difference (ΔLSm; Compound 1 minus placebo)±Standard Error (SE) with 90% confidence interval (CI) in percentage improvement from baseline in the TLS score (calculated as the average of the TLS score values collected from 2 lesions) at week 2 and week 4.
The results in Table 2 were obtained using the Mixed Model for Repeated Measures (MMRM).
Table 3 below presents the mean (±SEM) percentage improvement from baseline in the TLS score (calculated as the average of the TLS score values collected from 2 lesions) at week 2 and week 4 in the patient population with PASI<10 (mild) or PASI≥10 (moderate) at baseline.
The results in Table 3 come from standard descriptive analysis, ^(1)N=3, ^(2)N=15

Series [2] relates to participants with mild to moderate psoriasis. Briefly: 12-lead ECG (QTcF) in the clinical study. The class given is in vivo, human. As for the experimental part: as §1
The following electrocardiogram data were recorded: • Standard 12-lead ECGs (safety ECGs) were recorded after at least 10 minutes in supine position using an electrocardiographic device. The electrodes were positioned at the same place for each ECG recording throughout the study (e.g., attachment sites of the leads were visualized on a transparent paper). • Triplicate ECGs were recorded within 5 minutes with at least 1 min between 2 replicates for all ECG. • Each ECG consisted of a 10-second recording of the 12 leads simultaneously, leading to: • A single 12-lead ECG (50 mm/s, 10 mm/mV) printout with heart rate, PR, QRS, QT, QTc automatic correction evaluation (by the ECG device), including date, time, and number of the participant, signature of the research physician, and at least 3 complexes for each lead. The Investigator's medical opinion and automatic values were recorded in the eCRF. This printout was retained at the site. A second printout was performed also, if needed. • A digital storage that enables eventual further reading by an ECG central laboratory: each digital file will be identified by theoretical time (day and time Dxx Txx Hxx), real date and real time (recorder time), Sponsor study code, participant number (i.e., 3 digits), and site and country numbers, if relevant. The digital recording, data storage, and transmission (whenever requested) need to comply with all applicable regulatory requirements (i.e., FDA 21 code of federal regulations [CFR], Part 11).
For AESI in this study, the Sponsor was to be informed immediately (i.e., within 24 hours), as per SAE notification guidelines, even if a seriousness criterion was not met, using the corresponding screens in the eCRF. • ALT increased >3×ULN. • QT prolongation (QTcF≥500 milli seconds [ms]) and/or a delta QTc change from baseline>60 ms (12-lead ECG). In the event of prolongation of QTc interval (automatic measurement)≥500 ms, confirmed by a manual reading by the Investigator or a physician delegated by the Investigator using the Fridericia formula for correcting QT, the participant was placed under supervision in a specialized setting. Investigational medicinal product administration was stopped, and appropriate blood samples collected. Subsequent ECG monitoring of the participant was then performed on a regular and clinically responsible basis until the QTc interval returned to a safe value as determined by the Investigator in agreement with the Sponsor. • Photosensitivity (Grade 2 and above AE due to sun exposure). • Pregnancy. • Symptomatic overdose. • An overdose (accidental or intentional) with the IMP is an event suspected by the Investigator or spontaneously notified by the participant (not based on systematic pills count) and defined as at least twice the intended dose within the intended therapeutic interval, adjusted according to the tested drug.

For `CN1C(=O)c2cccc(OC(F)F)c2[C@H]2C[C@@H]1c1nc3ccc(-c4cnc(C5(N)CCC5)nc4)cc3n12` [Compound 1, (7R,14R)-11-[2-(1-aminocyclobutyl)pyrimidin-5-yl]-1-(difluoromethoxy)-6-methyl-6,7-dihydro-7,14-methanobenzimidazo[1,2-b][2,5]benzodiazocin-5(14H)-one], the “Mean (±SEM) % improvement from baseline in TLS score” value in series [1] (PASI < 10 (mild) population, week 2, N = 16, SEM 3.61) is 20.9%; in series [1] (PASI < 10 (mild) population, week 4, N = 15, SEM 6.32), 37.0%; in series [1] (PASI ≥ 10 (moderate) population, week 2, N = 9), 10.9% and 10.9 (6.20) %; in series [1] (PASI ≥ 10 (moderate) population, week 4, N = 9), 39.7% and 39.7 (4.03) %. The “LSm (±SE) % improvement from baseline in TLS score” value in series [1] (week 2, vs placebo 6.29%, p=0.032) was 17.06% and 17.06 (3.13) %; in series [1] (week 4, vs placebo 20.44%, p=0.012), 38.18% and 38.18 (4.33) %. Further, the “ΔLSm (±SE) (Compound 1 minus placebo) in % improvement from baseline in TLS score” value in series [1] (week 2, 90% CI 1.29 to 20.26) was 10.77% and 10.77 (5.61) %; in series [1] (week 4, 90% CI 4.98 to 30.49) it was 17.7% and 17.74% and 17.74 (7.54) %. Also, the “mean reduction in TLS score from baseline” value in series [1] (week 4, FIG. 1, placebo around 1.25 points) is given as “around 2.5 points”. Moreover, the “QTcF change from baseline >60 msec and/or QTcF>480 msec” value in series [2] (200 mg BID) is listed as “no QTcF change from baseline >60 msec and/or QTcF>480 msec”. In series [2] (200 mg BID, Day 8, baseline 426 msec), the “QTcF change from baseline, one participant” value came out at 33 ms. Moreover, the “Number of participants with QTcF>450 msec” value in series [2] (200 mg BID, one single occasion on Day 8) is given as “One”. In series [2] (200 mg BID, one single occasion on Day 8, baseline 426 msec), the “QTcF, one participant” value is 459 ms. In series [2] (4-week clinical trial), the “risk of QTc prolongation / impact on cardiac parameters (in words)” value is recorded as “No indication for risks on QTc prolongation was observed; also recorded: neither was any significant impact on cardiac parameters (e.g., QTcF interval)”.
